{
  "source": "patent US10842806B2",
  "about": "“Methods for treating ocular inflammatory disorders” (Massachusetts Eye and Ear Infirmary, priority 2011, dated 2020)",
  "key": {"[1]": {"system": "endotoxin-induced uveitis (EIU)", "test": "Cell count and total protein concentration in aqueous humor of EIU rats", "format": "in vivo, Lewis rats", "protocol": "Male Lewis rats ranging from 6-8 weeks old (Charles River, Wilmington, Mass.) were used for these studies. To study the effects of AICAR pretreatment, AICAR and PBS (for placebo treatment) were delivered via intraperitoneal injection of AICAR (50 mg/kg or 100 mg/kg body weight; Sigma) diluted in 150 μl PBS or equal volume of PBS at 6 hours before and at the same time as LPS injection. Four experimental groups of rats were compared: (1) Normal: no treatment (2) AICAR: normal rats treated with AICAR 6 hours before examination; (3) LPS: EIU rats treated with PBS; (4) LPS+AICAR: EIU rats treated with AICAR. Two additional groups of rats were used to study the effects of AICAR (50 mg/kg) given either at the same time as LPS injection or at 6 hours after LPS injection. Aqueous humor was collected by anterior chamber puncture with a 30-gauge needle 24 hours after LPS injection. For cell counting, 1 μl of aqueous humor was diluted with an equal amount of Trypan-blue solution, and the cells were counted with a hematocytometer under a light microscope. A separate sample of aqueous humor was centrifuged at 2500 rpm for 5 minutes at 4° C. and the total protein concentration was measured by Lowry methods using a Bio-Rad protein assay kit (Hercules, Calif.). Aqueous samples were stored on ice until used; cell counts and total protein concentrations were measured on the day of sample collection."}, "[2]": {"system": "CCL2/MCP-1", "test": "CCL2/MCP-1 ELISA in aqueous humor, retina and serum of EIU rats", "format": "in vivo, Lewis rats", "settings": "LPS + AICAR", "protocol": "Male Lewis rats ranging from 6-8 weeks old (Charles River, Wilmington, Mass.) were used for these studies. To study the effects of AICAR pretreatment, AICAR and PBS (for placebo treatment) were delivered via intraperitoneal injection of AICAR (50 mg/kg or 100 mg/kg body weight; Sigma) diluted in 150 μl PBS or equal volume of PBS at 6 hours before and at the same time as LPS injection. Four experimental groups of rats were compared: (1) Normal: no treatment (2) AICAR: normal rats treated with AICAR 6 hours before examination; (3) LPS: EIU rats treated with PBS; (4) LPS+AICAR: EIU rats treated with AICAR. Two additional groups of rats were used to study the effects of AICAR (50 mg/kg) given either at the same time as LPS injection or at 6 hours after LPS injection. Under deep anesthesia, experimental rats were sacrificed and the retinas were carefully removed 24 hours after LPS injection, placed into 200 μl of lysis buffer and then sonicated. The lysate was centrifuged at 13,000 rpm for 10 minutes at 4° C. and supernatant was isolated. Three hours after LPS injection, blood samples were collected from the heart and subsequently centrifuged at 3000 rpm for 30 minutes at 4° C., and serum samples were separated. Cytokine and chemokine levels in the serum, aqueous humor, and retina were assessed using the rat CCL2/MCP-1 kit (Invitrogen, Camarillo, Calif.), the rat TNF-α kit (R&D system, Minneapolis, Minn.) and the rat ICAM-1 kit (R&D systems) by ELISA."}, "[3]": {"system": "AMPKα1 KO BMDCs", "test": "LPS-stimulated AMPKα1 KO BMDC maturation and cytokine production", "format": "cell-based, mice", "settings": "after LPS stimulation with AICAR", "protocol": "BMDCs were generated as previously described (Wang et al. (2005) IMMUNOL. LETT. 98:123-130). Briefly, bone marrow was flushed from the femurs and tibias of naive mice (6 to 8-week-old WT or AMPKα1 KO mice). The red blood cells were lysed using Red Blood Cell Lysing Buffer (Sigma). Approximately 2×10^6 cells were cultured in complete medium (RPMI 1640 medium containing 10% FBS, […], 10 mM HEPES [pH 7.4], 2 mM glutamine, 100 U/ml penicillin, and […]) including 10 ng/ml GM-CSF (Pepro Tech, London, England). Fresh media was added to the cells on day 4 of culture, and nonadherent cells and loosely adherent cells were collected as immature DCs on day 7. Immature DCs were stimulated with 100 ng/ml LPS (Salmonella typhimurium; Sigma) for 24 hours to obtain mature DCs. In some experiments, AICAR was added to the culture. […] After LPS stimulation for 24 hours, supernatant of the BMDC culture was collected and IL-6, TNF-α and IL12/23 p40 concentrations were measured (R&D system). […] In these experiments, AMPKα1 KO mice were provided as previously described (Jorgensen et al. (2004) J. BIOL. CHEM. 279:1070-1079). Since BMDCs expressed only AMPKα1, BMDCs were extracted from AMPK KO mouse and used to determine the role of AMPK in the anti-inflammatory effects of AICAR. As shown in FIGS. 14A and 14B, AICAR suppressed the maturation of AMPKα1 KO BMDCs."}},
  "data": [
    {"smiles": "NC(=O)c1ncn([C@@H]2O[C@H](CO)[C@@H](O)[C@H]2O)c1N", "note": "[AICAR, 5-aminoimidazole-4-carboxamide-1-β-d-ribofuranoside]", "values": [
      {"measurement": "Total protein concentration in aqueous humor", "setting": "[1]; AICAR 50 mg/kg pretreatment, 24 h after LPS, LPS only 18.3", "result": 7.9, "unit": "mg/mL"},
      {"measurement": "Number of infiltrating cells in aqueous humor", "setting": "[1]; AICAR 50 mg/kg pretreatment, 24 h after LPS, n=11, LPS only 22.0×10^5", "result": "1.4×10^5 cells/ml"},
      {"measurement": "Cell infiltration and protein levels in aqueous humor of AICAR-only-treated rats", "setting": "[1]; normal rats, AICAR only, n=6", "result": "did not show any significant infiltration of cells nor a significant increase in protein levels"},
      {"measurement": "MCP-1 in serum", "setting": "[2]; 3 hours after LPS, n=11, LPS 6.8 ± 0.5", "result": "0.4 ± 0.2", "unit": "ng/mL"},
      {"measurement": "MCP-1 in aqueous humor", "setting": "[2]; 24 h after LPS, n=12, LPS 4.4 ± 3.9", "result": "0.8 ± 1.0", "unit": "ng/mL"},
      {"measurement": "MCP-1 in retina", "setting": "[2]; 24 h after LPS, n=14, LPS 18.7 ± 11.3", "result": "8.8 ± 2.9", "unit": "pg/total retinal protein"},
      {"measurement": "CD40 expression in AMPKα1 KO BMDCs", "setting": "[3]", "result": "significantly suppressed"},
      {"measurement": "CD80 expression in AMPKα1 KO BMDCs", "setting": "[3]", "result": "significantly suppressed"},
      {"measurement": "CD86 expression in AMPKα1 KO BMDCs", "setting": "[3]", "result": "significantly suppressed"},
      {"measurement": "I-A^b expression in AMPKα1 KO BMDCs", "setting": "[3]", "result": "significantly suppressed"},
      {"measurement": "IL12/23 p40 production in AMPKα1 KO BMDCs", "setting": "[3]", "result": "suppressed"},
      {"measurement": "IL-6 production in AMPKα1 KO BMDCs", "setting": "[3]", "result": "suppressed"},
      {"measurement": "TNF-α production in AMPKα1 KO BMDCs", "setting": "[3]", "result": "suppressed"}
    ]}
  ]
}
